Laboratory results reported in patent US20250339569A1, “CARBONIC ANHYDRASE IX LIGANDS” (priority 2021, published 2025).
Like-named read-outs stand apart in the source and are kept apart here.

Columns and labels:
[1] = Pharmacokinetic characterization in healthy mice; assay type: in vivo, CD-1 mice; conditions: male, CD-1, plasma, iv, mouse; for clearance: read-out: Clearance (CL); for half-life: read-out: terminal elimination half-life (converted); for Vd: read-out: volume of distribution (Vd)
Method: The pharmacokinetics of DPI-4452 after a single intravenous (i.v.) dose were investigated in healthy mice. […] Plasma and urine samples collected after dosing were analyzed using a LC-HRMS (liquid chromatography coupled with high-resolution mass spectrometry) assay method. Concentration values were used for pharmacokinetic calculations.
Male CD-1 mice (3 animals per time point and per dose level; overall, 28.2-37.6 g body weight) were administered intravenously in the tail vein in a 2 mL/kg dosing volume. Blood samples were collected in K2EDTA tubes at 5 min, 15 min, 30 min, 1 h, 2 h, 4 h, 8 h, and urine was collected over 8 hours post dose. The blood samples were kept on wet ice until plasma separation by centrifugation at room temperature; 10 min; 2500 G, which was performed within 60 min after sampling. The plasma samples were transferred into plastic tubes, frozen and stored at −80° C. until analysis.
Plasma and urine samples were analyzed by LC-HRMS after solid phase extraction, using a stable isotope-labeled internal standard (^13C6, ^15N-DPI-4452). Chromatographic separation was run on a Waters Acquity HSS T3 C18 2.1×50 mm, 1.8 μm column. Detection was achieved on a Sciex API6600 TOF mass spectrometer. The lower limit of quantification was 1.00 ng/mL in plasma and urine.
The non-compartmental (NCA) pharmacokinetic analysis of plasma concentration data was conducted using Phoenix 64 WinNonlin (Build 8.3.3.33) software. Nominal doses were used for all animals. The terminal phase half-life (T1/2) was calculated by least-squares regression analysis of the terminal linear part of the log concentration-time curve. The area under the plasma concentration-time curve (AUC) was determined with the linear trapezoidal rule for increasing values and log trapezoidal rule for decreasing values up to the last measurable concentration.

[2] = Allometry and prediction of human exposure and PK parameters; conditions: allometry from mouse and dog PK
Method: From the variety of CL, Vd and T1/2 determined in the animal studies, the highest and lowest values for each species were retained, and allometry was conducted on all the combinations to obtain a range for each predicted human PK parameter.
The missing input parameters were dealt with as follows. Regarding blood:plasma concentration ratio, the frequent default values of 1.0 and 0.8 were considered and found to make no difference to the outputs, so it was left at 1.0. Plasma protein binding: a free fraction fup of 1 was considered in order to estimate the highest C5 min values.

human CAIX = human CAIX (Homo sapiens, UniProt Q16790); test: Radioligand saturation binding and equilibration on CHO-huCAIX; set-up: host or cells: CHO-VGT / CHO cells
Method: After attainment of equilibrium, the cells were harvested, and the bound fraction of the compounds was measured. The resulting saturation binding data were analyzed using Graph Pad Prism 8.3.
CHO cells transfected with human, dog, and mouse CAIX (CHO-huCA9 T04J-1/20 K1, CHO-dogCA9 T05J-9/20 K4, CHO-murCA9 T05J-3/20 K4) were obtained from InSCREENex (Germany).
A molar excess of 3BP-3565 was used as a blocking peptide to assess non-specific binding in autoradiographic studies. 3BP-3565 binds with a similar affinity to CAIX and blocks binding sites of test compounds. For the blocking solution, a 10 mM stock solution of 3BP-3565 was prepared by dissolution in DMSO.
CHO cells were maintained in Ham's medium supplemented with 10% fetal bovine serum, 2 mM L-glutamine, 100 U/mL Penicillin and 0.1 mg/mL streptomycin under standard cell culture conditions. The cells were grown in uncoated cell culture flasks (150 cm^2, Biochrom) to subconfluence and then split 1:2-1:3. Approximately 24 hours before the assay, cells were detached by incubation with Accutase and carefully tapping the flasks. Detached cells were resuspended in medium and collected by centrifugation (300 g, 5 min, RT). Cell pellets were resuspended in cell culture medium and counted using a particle counter (CASY Model TT, Scharfe Systems, Germany). Cell concentrations were adjusted to 3×10^5 mL^−1, and 1.000 μL per well of the suspension were dispensed into poly-D-lysine-coated flat-clear-bottom 24 well plates.
Compound radiolabeling was performed as follows. […] Then, 25 mg/mL methionine in 1 M sodium acetate buffer pH 5 was added at a final concentration of 0.1 M sodium acetate. Subsequently, the mixture was heated to 80° C. for 25 min, followed by cooling for 5 minutes. Finally, 20 μL of 200 mg/mL ascorbic acid solution, 2.5 μL of 5 mg/mL DTPA and 2.5 μL of 5% TWEEN-20 per 100 μL reaction mixture were added, resulting in the concentrated study solution. For quality control, an aliquot of the labeling solution was diluted 1:40 with 0.1% TWEEN-20 in 0.1 M sodium acetate buffer pH 5. Five microliters of the diluted labeling solution were injected onto a Poroshell SB-C18 2.1×50 mm, 2.7 μm column. HPLC analysis was performed as follows: Gradient A: H2O, 0.1% TFA, Gradient B: Acetonitrile (MeCN), gradient from 5% B to 70% B within 15 min, flow rate of 0.5 mL/min; detector: NaI, DAD 215 nm. The peak eluting with the dead volume represents free radionuclide, the peak eluting with the ligand-specific retention time as determined with a non-labeled sample represents the radiolabeled compound.
The assessment of the time needed until attainment of equilibration on CHO-huCAIX and CHO-dgCAIX was performed as follows. The 10 mM 3BP-3565 stock solution was diluted with assay medium (Ham's medium without additives) to prepare an 8-μM blocking working solution. The radiolabeling mixtures were diluted with assay medium to prepare 160 nM radioligand working solutions. Subsequently, 1.6 and 3.2 nM radioligand dilutions were prepared by diluting the radioligand working solutions 1:100 and 1:50, respectively, with assay medium. Approximately 24 hours after re-seeding (3×10^5 mL^−1 cells per well), the medium was aspirated, and the cells were washed once with assay medium (700 μL). To determine total binding, 700 μL of binding medium and 100 μL of the radioligand dilutions were added to the wells in triplicates.
To determine non-specific binding, 600 μL of binding medium, 100 μL of the […] 3BP-3565 blocking solution and 100 μL of the radioligand dilutions were added to the wells in triplicates. The plates were incubated for 1 h, 3 h, 6 h, and 8 h at 37° C. under standard cell culture conditions (5% CO2). At the end of the incubation time, the plates were placed on ice while aspirating the radioligand solutions. Subsequently, the cells were washed with ice-cold PBS (0.5 mL, 1 mL, 1 mL). […]

**Q.** Which AUC(0-inf) ([1]; i.v. 0.7 mg/kg) does the source give for `CC(C)C[C@@H]1NC(=O)[C@H](Cc2cccc(NC(=O)CCCS(N)(=O)=O)c2)NC(=O)[C@H](CC(=O)O)NC(=O)[C@H]2CCCN2C(=O)[C@H](CCC(=O)O)NC(=O)[C@@H](NC(=O)[C@H](CCC(N)=O)NC(=O)CN2CCN(C(=O)CN3CCN(CC(=O)O)CCN(CC(=O)O)CCN(CC(=O)O)CC3)CC2)CSCc2cccc(c2)CSC[C@@H](C(N)=O)NC(=O)[C@H](CO)NC(=O)[C@H](Cc2c[nH]c3ccccc23)NC(=O)[C@H]([C@@H](C)O)NC1=O` [DPI-4452, DOTA-PPAc-Gln-[Cys(3MeBn)-Glu-pro-Asp-Af3(Cpsu)-Leu-Thr-Trp-Ser-Cys]-NH2] here?
**A.** 424 ng·h/mL

**Q.** And the clearance ([1]; i.v. 0.7 mg/kg)?
**A.** 27.5 mL/min/kg

**Q.** And the half-life ([1]; i.v. 0.7 mg/kg)?
**A.** 16.8 min

**Q.** What about the Vd ([1]; i.v. 0.7 mg/kg) of the same compound?
**A.** 0.408 L/kg

**Q.** What about the AUC(0-inf) ([1]; i.v. 5.5 mg/kg) of the same compound?
**A.** 2820 ng·h/mL

**Q.** And the clearance ([1]; i.v. 5.5 mg/kg)?
**A.** 32.5 mL/min/kg

**Q.** And the half-life ([1]; i.v. 5.5 mg/kg)?
**A.** 27.9 min

**Q.** What about the Vd ([1]; i.v. 5.5 mg/kg) of the same compound?
**A.** 0.455 L/kg

**Q.** And the “predicted human clearance (CL)” value [2]?
**A.** 3.57 to 13.0 mL/min/kg

**Q.** And the “predicted human terminal half-life (T1/2)” value [2]?
**A.** 10.2 to 88.2 min

**Q.** And the “predicted human volume of distribution (Vd)” value [2]?
**A.** 0.189 to 0.455 L/kg

**Q.** Which results are given for `CC(C)C[C@@H]1NC(=O)[C@H](Cc2cccc(NC(=O)CCCS(N)(=O)=O)c2)NC(=O)[C@H](CC(=O)O)NC(=O)[C@H]2CCCN2C(=O)[C@H](CCC(=O)O)NC(=O)[C@@H](NC(=O)[C@H](CCC(N)=O)NC(=O)CN2CCN(C(=O)CN3CCN(CC(=O)O)CCN(CC(=O)O)CCN(CC(=O)O)CC3)CC2)CSCc2cccc(c2)CSC[C@@H](C(N)=O)NC(=O)[C@H](CO)NC(=O)[C@H](Cc2c[nH]c3ccccc23)NC(=O)[C@H]([C@@H](C)O)NC1=O` [[^111In]In-DPI-4452, metal not drawn]?
**A.** Kd (human CAIX; Mean pKd ± SD, CHO-huCAIX): 0.316 nM; Kd (human CAIX; pKd, CHO-huCAIX, first independent experiment): 0.2 nM; Kd (human CAIX; pKd, CHO-huCAIX, second independent experiment): 0.501 nM; Kd (human CAIX; pKd, human CAIX expressed in CHO cells, 8 h at 37°C): ≤ 1 nM
